Reference: patent US20250320193A1, “OXOISOINDOLINYL SUBSTITUTED PIPERIDINEDIONE DERIVATIVE AND USE THEREOF” (GLUETACS THERAPEUTICS (SHANGHAI) CO., LTD., priority 2022, published 2025)

Tests used:
[1] = target: IKZF1 (Homo sapiens (Human), UniProt Q13422+Q96SW2); assay: Western blot, substrate protein expression in hPBMC: IKZF1; assay type: cell-based; conditions: for substrate protein remaining % IKZF1: hPBMC, compound 500 nM, 24 hours, Western blot; for concentration at which IKZF1 protein was significantly degraded (Western blot, FIG. 1): hPBMCs
Sequence of IKZF1 (Q13422 whole entry): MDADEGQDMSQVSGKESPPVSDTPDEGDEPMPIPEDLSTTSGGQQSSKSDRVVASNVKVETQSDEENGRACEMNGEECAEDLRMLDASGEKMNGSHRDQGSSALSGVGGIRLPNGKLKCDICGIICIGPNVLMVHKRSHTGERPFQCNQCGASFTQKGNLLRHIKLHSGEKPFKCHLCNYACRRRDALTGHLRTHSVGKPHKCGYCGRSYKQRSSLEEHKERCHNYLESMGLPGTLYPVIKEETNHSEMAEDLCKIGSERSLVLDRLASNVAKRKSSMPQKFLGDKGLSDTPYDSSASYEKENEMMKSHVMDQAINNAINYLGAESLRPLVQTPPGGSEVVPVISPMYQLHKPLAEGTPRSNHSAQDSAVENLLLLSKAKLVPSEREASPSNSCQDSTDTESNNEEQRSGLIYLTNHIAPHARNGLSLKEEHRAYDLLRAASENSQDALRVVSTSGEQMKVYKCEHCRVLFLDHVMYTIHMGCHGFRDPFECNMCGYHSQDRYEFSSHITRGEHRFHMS
Sequence of IKZF1 (Q96SW2 whole entry): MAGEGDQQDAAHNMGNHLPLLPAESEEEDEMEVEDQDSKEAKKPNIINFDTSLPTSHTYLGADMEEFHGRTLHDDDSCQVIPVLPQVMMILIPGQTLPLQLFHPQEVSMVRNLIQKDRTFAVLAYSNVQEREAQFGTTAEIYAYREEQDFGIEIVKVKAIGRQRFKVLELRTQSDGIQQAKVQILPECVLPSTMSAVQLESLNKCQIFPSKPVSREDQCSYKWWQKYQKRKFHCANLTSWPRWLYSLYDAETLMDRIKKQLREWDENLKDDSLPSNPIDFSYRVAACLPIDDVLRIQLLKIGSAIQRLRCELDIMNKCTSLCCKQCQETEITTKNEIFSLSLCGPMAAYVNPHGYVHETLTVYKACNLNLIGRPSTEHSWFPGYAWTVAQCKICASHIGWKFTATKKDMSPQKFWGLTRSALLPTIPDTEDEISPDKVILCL
Sequence of IKZF1 (Q16531 whole entry partner): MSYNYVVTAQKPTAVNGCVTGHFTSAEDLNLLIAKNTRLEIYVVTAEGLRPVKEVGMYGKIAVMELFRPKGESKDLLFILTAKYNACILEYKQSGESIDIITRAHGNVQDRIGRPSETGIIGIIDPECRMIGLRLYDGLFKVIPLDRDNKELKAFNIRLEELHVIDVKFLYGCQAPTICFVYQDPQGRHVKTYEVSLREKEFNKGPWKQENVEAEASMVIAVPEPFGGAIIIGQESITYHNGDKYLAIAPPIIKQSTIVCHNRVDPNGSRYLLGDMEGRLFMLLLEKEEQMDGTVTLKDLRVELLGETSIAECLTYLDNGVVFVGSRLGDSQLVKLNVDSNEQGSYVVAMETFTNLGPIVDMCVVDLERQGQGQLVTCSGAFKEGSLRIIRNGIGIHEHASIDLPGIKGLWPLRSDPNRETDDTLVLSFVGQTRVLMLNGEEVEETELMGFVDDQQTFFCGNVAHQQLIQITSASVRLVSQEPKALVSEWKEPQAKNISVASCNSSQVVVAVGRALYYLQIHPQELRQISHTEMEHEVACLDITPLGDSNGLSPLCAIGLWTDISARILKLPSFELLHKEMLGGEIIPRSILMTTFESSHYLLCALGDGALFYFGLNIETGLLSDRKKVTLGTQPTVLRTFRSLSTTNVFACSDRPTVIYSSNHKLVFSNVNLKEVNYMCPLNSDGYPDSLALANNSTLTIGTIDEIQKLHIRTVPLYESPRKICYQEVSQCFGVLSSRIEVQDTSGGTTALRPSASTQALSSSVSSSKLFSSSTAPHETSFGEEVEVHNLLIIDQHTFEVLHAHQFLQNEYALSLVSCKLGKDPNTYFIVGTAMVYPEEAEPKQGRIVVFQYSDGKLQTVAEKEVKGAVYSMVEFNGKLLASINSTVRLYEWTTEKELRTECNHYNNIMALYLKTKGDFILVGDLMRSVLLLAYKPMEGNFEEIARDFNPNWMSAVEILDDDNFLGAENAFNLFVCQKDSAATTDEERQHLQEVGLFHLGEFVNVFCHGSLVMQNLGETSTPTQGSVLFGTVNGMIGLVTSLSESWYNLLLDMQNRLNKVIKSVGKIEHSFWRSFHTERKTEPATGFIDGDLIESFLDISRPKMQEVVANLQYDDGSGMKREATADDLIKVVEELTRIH
Experimental: (§1) The effect of the compounds of the present disclosure on the expression of target proteins in cells was detected using conventional Western blot analysis.
(§2) Human peripheral blood mononuclear cells (hPBMCs) at a density of 1×10^6 cells/mL were thawed according to the PBMC Recovery Protocol (Milecell Biotechnologies Inc, Shanghai). […] After 24 hours of compounds treatment, cells were harvested and lysed in RIPA protein lysate containing phosphatase inhibitors on ice for 30-60 min, followed by centrifugation. The supernatant was aspirated as the extracted total cell protein. The protein concentration of the supernatant was determined using the conventional BCA (Bicinchoninic Acid) assay. The supernatant was then mixed with 4× SDS sample loading buffer, denatured at 95° C. for 5 minutes, and then subjected to SDS-PAGE electrophoresis on a polyacrylamide gel. Proteins were then transferred to a nitrocellulose (NC) membrane, blocked at room temperature for 1-2 h, and processed for antibody incubation and detection according to the manufacturer's instructions (Cell Signaling Technology).
(§3) Half-Maximal Degradation Concentration value (the drug concentration required for degrading proteins by 50%, abbreviated as DC50) reads method: comparing the grayscale values of Western blot bands from drug-treated samples (protein degrader compounds) with those from blank (DMSO-treated) controls, and identifying the drug concentration range at which the grayscale value is half that of the DMSO-treated control bands.
(§4) DC50 values can be calculated using ImageJ software to measure grayscale values of Western blot bands from drug-treated samples. The relationship curve between drug concentration and grayscale values is fitted to estimate the drug concentration corresponding to half the grayscale value.
(§5) Target protein remaining (%) refers to the percentage of target protein remaining in hPBMC cells after treatment with protein degrader compounds.
(§6) Calculation method for protein remaining (%): Use ImageJ software to measure grayscale values of Western blot bands from drug (protein degrader)-treated samples. The grayscale value of drug-treated bands is divided by that of internal control protein bands, and the resulting quotient is normalized to obtain the relative percentage of remaining target protein after protein degrader treatment.
(§7) Target protein degradation rate (%)=100%-target protein remaining (%).

[2] = target: IKZF3 (Homo sapiens (Human), UniProt Q96SW2+Q9UKT9); assay: Western blot, substrate protein expression in hPBMC: IKZF3; assay type: cell-based; conditions: for substrate protein remaining % IKZF3: hPBMC, compound 500 nM, 24 hours, Western blot; for concentration at which IKZF3 protein was significantly degraded (Western blot, FIG. 1): hPBMCs
Sequence of IKZF3 (Q9UKT9 whole entry): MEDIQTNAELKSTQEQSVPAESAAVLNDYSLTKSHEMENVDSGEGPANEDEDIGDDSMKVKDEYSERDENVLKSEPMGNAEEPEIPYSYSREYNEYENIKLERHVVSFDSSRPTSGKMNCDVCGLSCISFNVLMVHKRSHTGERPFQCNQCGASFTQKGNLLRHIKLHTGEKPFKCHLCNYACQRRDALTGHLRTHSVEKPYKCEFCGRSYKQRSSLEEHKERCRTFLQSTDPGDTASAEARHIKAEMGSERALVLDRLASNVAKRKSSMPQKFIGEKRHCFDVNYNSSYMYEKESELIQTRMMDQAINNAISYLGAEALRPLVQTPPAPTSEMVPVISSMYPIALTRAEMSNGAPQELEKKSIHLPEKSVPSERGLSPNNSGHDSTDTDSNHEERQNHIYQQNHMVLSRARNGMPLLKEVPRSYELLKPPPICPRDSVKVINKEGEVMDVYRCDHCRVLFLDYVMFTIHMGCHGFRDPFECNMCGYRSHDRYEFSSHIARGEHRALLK
Sequence of IKZF3 (Q96SW2 whole entry): as the sequence (Q96SW2 whole entry) above
Sequence of IKZF3 (Q16531 whole entry partner): as the sequence (Q16531 whole entry partner) above
Experimental: as §1, §2, §3, §4, §5, §6, §7

[3] = target: GSPT1 (Homo sapiens (Human), UniProt P15170+Q96SW2); assay: Western blot, substrate protein expression in hPBMC: GSPT1; assay type: cell-based; conditions: for substrate protein remaining % GSPT1: hPBMC, compound 500 nM, 24 hours, Western blot
Sequence of GSPT1 (P15170 whole entry): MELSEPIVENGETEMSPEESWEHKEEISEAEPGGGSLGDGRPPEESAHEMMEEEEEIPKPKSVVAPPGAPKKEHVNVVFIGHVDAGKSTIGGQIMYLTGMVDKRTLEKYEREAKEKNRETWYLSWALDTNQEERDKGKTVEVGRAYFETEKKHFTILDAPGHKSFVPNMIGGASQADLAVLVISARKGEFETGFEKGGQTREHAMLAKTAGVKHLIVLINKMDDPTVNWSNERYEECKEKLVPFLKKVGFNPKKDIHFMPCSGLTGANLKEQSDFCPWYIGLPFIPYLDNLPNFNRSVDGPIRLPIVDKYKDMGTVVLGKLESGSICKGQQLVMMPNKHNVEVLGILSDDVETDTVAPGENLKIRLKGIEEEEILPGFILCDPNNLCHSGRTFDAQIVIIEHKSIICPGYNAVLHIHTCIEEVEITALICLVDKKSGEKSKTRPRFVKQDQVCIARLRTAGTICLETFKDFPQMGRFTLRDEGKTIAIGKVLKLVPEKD
Sequence of GSPT1 (Q96SW2 whole entry): as the sequence (Q96SW2 whole entry) above
Sequence of GSPT1 (Q16531 whole entry partner): as the sequence (Q16531 whole entry partner) above
Experimental: as §1, §2, §3, §4, §5, §6, §7

[4] = target: human Cereblon WT GST-tagged protein (Homo sapiens (Human), UniProt Q96SW2); assay: CRBN-binding affinity, HTRF (CEREBLON BINDING kit, CISBIO); conditions: HTRF inhibitory activity
Sequence of human Cereblon WT GST-tagged protein (Q96SW2 whole entry): as the sequence (Q96SW2 whole entry) above
In short: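 Compounds were mixed with GST-tagged human Cereblon WT protein, then with Thalidomide-Red tracer and GST Eu antibody, and binding was read by HTRF. Inhibition rate was calculated from 620 nm emission relative to blank control wells (no protein) and solvent control wells.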

For `O=C1CCC(N2Cc3c(ccc(CN4C5CC4CN(C(c4ccccc4)c4ccccc4)C5)c3F)C2=O)C(=O)N1` (stereo not drawn) [GT-03572, 3-(5-((3-benzhydryl-3,6-diazabicyclo[3.1.1]heptan-6-yl)methyl)-4-fluoro-1-oxoisoindolin-2-yl)piperidine-2,6-dione], the “substrate protein remaining % IKZF1” value [1] was “B (B represents substrate protein remaining % > 50%)”, the “substrate protein remaining % IKZF3” value [2] was “A (A represents 0% ≤ substrate protein remaining % ≤ 50%)” and the “substrate protein remaining % GSPT1” value [3] was “A (A represents 0% ≤ substrate protein remaining % ≤ 50%)”.

`O=C1CCC(N2Cc3c(CN4CCN(C(c5ccc(Cl)cc5)c5ccc(Cl)cc5)CC4)cccc3C2=O)C(=O)N1` (stereo not drawn) [GT-03648, 3-(4-((4-(bis(4-chlorophenyl)methyl)piperazin-1-yl)methyl)-1-oxoisoindolin-2-yl)piperidine-2,6-dione] was tested, and the “substrate protein remaining % IKZF1” value [1] was “B (B represents substrate protein remaining % > 50%)”, the “substrate protein remaining % IKZF3” value [2] was “B (B represents substrate protein remaining % > 50%)” and the “substrate protein remaining % GSPT1” value [3] was “A (A represents 0% ≤ substrate protein remaining % ≤ 50%)”.

`O=C1CCC(N2Cc3cc(CN4CCN(C(c5cccnc5)c5cccnc5)CC4)c(F)cc3C2=O)C(=O)N1` (stereo not drawn) [GT-04386, 3-(5-((4-(di(pyridin-3-yl)methyl)piperazin-1-yl)methyl)-6-fluoro-1-oxoisoindolin-2-yl)piperidine-2,6-dione] was tested, and the “substrate protein remaining % IKZF1” value [1] was “B (B represents substrate protein remaining % > 50%)”, the “substrate protein remaining % IKZF3” value [2] was “B (B represents substrate protein remaining % > 50%)” and the “substrate protein remaining % GSPT1” value [3] was “A (A represents 0% ≤ substrate protein remaining % ≤ 50%)”.

`O=C1CCC(N2C(=O)c3ccc(CN4CCN(C(c5ccccc5)c5ccccc5)CC4)cc3C2=O)C(=O)N1` (stereo not drawn) [GT-05690, 5-((4-benzhydrylpiperazin-1-yl)methyl)-2-(2,6-dioxopiperidin-3-yl) isoindoline-1,3-dione] was tested, and the “substrate protein remaining % IKZF1” value [1] was “A (A represents 0% ≤ substrate protein remaining % ≤ 50%)”, the “concentration at which IKZF1 protein was significantly degraded (Western blot, FIG. 1)” value [1] was < 500 nM and the “substrate protein remaining % IKZF3” value [2] was “A (A represents 0% ≤ substrate protein remaining % ≤ 50%)”. For the same compound, the “concentration at which IKZF3 protein was significantly degraded (Western blot, FIG. 1)” value [2] was < 500 nM and the “substrate protein remaining % GSPT1” value [3] was “A (A represents 0% ≤ substrate protein remaining % ≤ 50%)”.

In the case of `O=C1CCC(N2C(=O)c3ccc(CN4CCN(C(c5ccccc5)c5ccccn5)CC4)cc3C2=O)C(=O)N1` (stereo not drawn) [GT-05723, 2-(2,6-dioxopiperidin-3-yl)-5-((4-(phenyl(pyridin-2-yl)methyl)piperazin-1-yl)methyl) isoindoline-1,3-dione], the “substrate protein remaining % IKZF1” value [1] is reported as “B (B represents substrate protein remaining % > 50%)”, the “substrate protein remaining % IKZF3” value [2] is reported as “B (B represents substrate protein remaining % > 50%)” and the “substrate protein remaining % GSPT1” value [3] is reported as “A (A represents 0% ≤ substrate protein remaining % ≤ 50%)”.

For `O=C1CCC(N2C(=O)c3ccc(CN4CCN(C(c5ccc(F)cc5)c5ccc(F)cc5)CC4)cc3C2=O)C(=O)N1` (stereo not drawn) [GT-05726, 5-((4-(bis(4-fluorophenyl)methyl)piperazin-1-yl)methyl)-2-(2,6-dioxopiperidin-3-yl) isoindoline-1,3-dione], the “substrate protein remaining % IKZF1” value [1] was “B (B represents substrate protein remaining % > 50%)”, the “substrate protein remaining % IKZF3” value [2] was “A (A represents 0% ≤ substrate protein remaining % ≤ 50%)” and the “substrate protein remaining % GSPT1” value [3] was “A (A represents 0% ≤ substrate protein remaining % ≤ 50%)”.

In the case of `O=C1CCC(N2C(=O)c3ccc(CN4CCN(C(c5ccc(Cl)cc5)c5ccc(Cl)cc5)CC4)cc3C2=O)C(=O)N1` (stereo not drawn) [GT-05727, 5-((4-(bis(4-chlorophenyl)methyl)piperazin-1-yl)methyl)-2-(2,6-dioxopiperidin-3-yl) isoindoline-1,3-dione], the “substrate protein remaining % IKZF1” value [1] is reported as “B (B represents substrate protein remaining % > 50%)”, the “substrate protein remaining % IKZF3” value [2] is reported as “A (A represents 0% ≤ substrate protein remaining % ≤ 50%)” and the “substrate protein remaining % GSPT1” value [3] is reported as “A (A represents 0% ≤ substrate protein remaining % ≤ 50%)”.

`O=C1CCC(N2C(=O)c3ccc(CN4CCCN(C(c5ccccc5)c5ccccc5)CC4)cc3C2=O)C(=O)N1` (stereo not drawn) [GT-05739, 5-((4-benzhydryl-1,4-diazepan-1-yl)methyl)-2-(2,6-dioxopiperidin-3-yl) isoindoline-1,3-dione] was tested, and the “substrate protein remaining % IKZF1” value [1] was “B (B represents substrate protein remaining % > 50%)”, the “substrate protein remaining % IKZF3” value [2] was “B (B represents substrate protein remaining % > 50%)” and the “substrate protein remaining % GSPT1” value [3] was “A (A represents 0% ≤ substrate protein remaining % ≤ 50%)”.

In the case of `O=C1CCC(N2C(=O)c3ccc(CN4CCC(N(c5ccccc5)c5ccccn5)CC4)cc3C2=O)C(=O)N1` (stereo not drawn) [GT-05742, 2-(2,6-dioxopiperidin-3-yl)-5-((4-(phenyl(pyridin-2-yl)amino)piperidin-1-yl)methyl) isoindoline-1,3-dione], the “substrate protein remaining % IKZF1” value [1] is reported as “A (A represents 0% ≤ substrate protein remaining % ≤ 50%)”, the “concentration at which IKZF1 protein was significantly degraded (Western blot, FIG. 1)” value [1] is reported as “below 50 nM” and the “substrate protein remaining % IKZF3” value [2] is reported as “A (A represents 0% ≤ substrate protein remaining % ≤ 50%)”. The “concentration at which IKZF3 protein was significantly degraded (Western blot, FIG. 1)” value [2] was “below 50 nM”, the “substrate protein remaining % GSPT1” value [3] was “A (A represents 0% ≤ substrate protein remaining % ≤ 50%)” and the “concentration at which GSPT1 protein was clearly/significantly degraded (Western blot, FIG. 1)” value ([3]; hPBMCs) was “below 50 nM”.

For `O=C1CCC(N2Cc3ccc(C(=O)N4CCN(C(c5ccccc5)c5ccccc5)CC4)cc3C2=O)C(=O)N1` (stereo not drawn) [GT-05851, 3-(6-(4-benzhydrylpiperazine-1-carbonyl)-1-oxoisoindolin-2-yl)piperidine-2,6-dione], the “substrate protein remaining % IKZF1” value [1] was “A (A represents 0% ≤ substrate protein remaining % ≤ 50%)”, the “substrate protein remaining % IKZF3” value [2] was “B (B represents substrate protein remaining % > 50%)” and the “substrate protein remaining % GSPT1” value [3] was “A (A represents 0% ≤ substrate protein remaining % ≤ 50%)”.

`O=C1CCC(N2C(=O)c3ccc(C(=O)N4CCN(C(c5ccccn5)c5ccccn5)CC4)cc3C2=O)C(=O)N1` (stereo not drawn) [GT-05880, 5-(4-(di(pyridin-2-yl)methyl)piperazine-1-carbonyl)-2-(2,6-dioxopiperidin-3-yl) isoindoline-1,3-dione] was tested, and the “substrate protein remaining % IKZF1” value [1] was “B (B represents substrate protein remaining % > 50%)”, the “substrate protein remaining % IKZF3” value [2] was “B (B represents substrate protein remaining % > 50%)” and the “substrate protein remaining % GSPT1” value [3] was “A (A represents 0% ≤ substrate protein remaining % ≤ 50%)”.

With `O=C1CCC(N2C(=O)c3ccc(C(=O)N4CCN(C(c5ccc(F)cc5)c5ccc(F)cc5)CC4)cc3C2=O)C(=O)N1` (stereo not drawn) [GT-05885, 5-(4-(bis(4-fluorophenyl)methyl)piperazine-1-carbonyl)-2-(2,6-dioxopiperidin-3-yl) isoindoline-1,3-dione] the “substrate protein remaining % IKZF1” value [1] was “B (B represents substrate protein remaining % > 50%)”, the “substrate protein remaining % IKZF3” value [2] was “B (B represents substrate protein remaining % > 50%)” and the “substrate protein remaining % GSPT1” value [3] was “A (A represents 0% ≤ substrate protein remaining % ≤ 50%)”.

For `O=C1CCC(N2C(=O)c3ccc(C(=O)N4CCN(C(c5ccc(Cl)cc5)c5ccc(Cl)cc5)CC4)cc3C2=O)C(=O)N1` (stereo not drawn) [GT-05890, 5-(4-(bis(4-chlorophenyl)methyl)piperazine-1-carbonyl)-2-(2,6-dioxopiperidin-3-yl) isoindoline-1,3-dione], the “substrate protein remaining % IKZF1” value [1] was “B (B represents substrate protein remaining % > 50%)”, the “substrate protein remaining % IKZF3” value [2] was “B (B represents substrate protein remaining % > 50%)” and the “substrate protein remaining % GSPT1” value [3] was “A (A represents 0% ≤ substrate protein remaining % ≤ 50%)”.

With `O=C1CCC(N2Cc3cc(NC4CCC(N(c5ccccc5)c5ccccc5)CC4)ccc3C2=O)C(=O)N1` (stereo not drawn) [GT-06806, 3-(5-((4-(diphenylamino)cyclohexyl)amino)-1-oxoisoindolin-2-yl)piperidine-2,6-dione] the IC50 [4] was 1000 to 1900 nM.
